Results: patent US20100173835A1, “Peptides for Treatment of Obesity” (Novo Nordisk A/S, priority 2008, published 2010)
≈ marks a conversion by molar mass, not a printed value. Read-outs that look alike come from different tables or passages of the source. Values belong to the compound of their own block, whether it stands above or below them. Where a SMILES comes first, the peptide text is derived from it. Bridges are numbered along the chain shown (N, C = ends). [ ]: non-standard residue; d: D form. The star is where a group is joined. Palmitoyl(16-(5-tetrazolyl)) = O=C(CCCCCCCCCCCCCCCc1nnn[nH]1)*; Hyp = O=C(O)[C@@H]1C[C@@H](O)CN1; NTA = O=C(O)CN(CC(=O)O)CC(=O)*; Nle = CCCC[C@H](N)C(=O)O; Orn = NCCC[C@H](N)C(=O)O; Dap = NC[C@H](N)C(=O)O; AEEA = NCCOCCOCC(=O)O

What was measured:
[1] = Solubility data of compounds in water over the pH range; format: physicochemical
human MC4 receptor = biological target: T1, human MC4 receptor (Homo sapiens, UniProt P32245); test: Assay (V) Melanocortin Receptor 4 (MC4) binding assay; conditions: 125NDP-α-MSH binding, BHK cell membranes
T1 construct: expressed in transfected cells
Protocol: Assay (V)—Melanocortin Receptor 4 (MC4) Binding Assay
In vitro ^125NDP-α-MSH binding to recombinant BHK cells expressing human MC4 receptor (filtration assay).
The assay is performed in 5 ml minisorb vials (Sarstedt No. 55.526) or in 96-well filterplates (Millipore MADVN 6550), and using BHK cells expressing the human MC4 receptor using BHK cells stably expressing the human MC4 receptor. The membranes were prepared from frozen or fresh cells that were homogenized in 20 mM HEPES pH 7.1, 5 mM MgCl2 and 1 mg/ml bacitracin and centrifuged at 15000 rpm at 4° C., 10 min in a Sorvall RC 5B plus, SS-34 rotor. The supernatant was discarded, and the pellets were re-suspended in buffer, homogenized and centrifuged two more times. The final pellets were resuspended in the buffer mentioned above, and the protein concentration was measured and adjusted with buffer to 14 to 17 mg/ml and the membrane preparation were kept at −80° C. until assay. The assay was run directly on a dilution of this cell membrane suspension, without any further preparation. The BHK cell membranes are kept at −80° C. until assay, and the assay is run directly on a dilution of this cell membrane suspension, without further preparation. The suspension is diluted to give maximally 10% specific binding, i.e. to approx. 50-100 fold dilution. The assay is performed in a total volume of 200 μl: 50 μl of cell suspension, 50 μl of ^125NDP-α-MSH (≈79 pM in final concentration), 50 μl of test compound and 50 μl binding buffer (pH 7) mixed and incubated for 2 h at 25° C. [binding buffer: 25 mM HEPES, pH 7.0, 1 mM CaCl2, 1 mM MgSO4, 1 mM EGTA, 0.02% Bacitracin, 0.005% Tween™ 20 and 0.1% HSA or, alternatively, 0.1% ovalbumin (Sigma; catalogue No. A-5503)]. Test compounds are dissolved in DMSO and diluted in binding buffer. Radiolabelled ligand and membranes are diluted in binding buffer. The incubation is stopped by dilution with 2×100 μl ice-cold 0.9% NaCl. The radioactivity retained on the filters is counted using a Cobra II auto gamma counter.
(§1) The data are analysed by non-linear regression analysis of binding curves, using the Windows™ program GraphPad™ Prism (GraphPad Software, USA).

MC1 receptor = biological target: T2, MC1 receptor (Homo sapiens, UniProt Q01726); test: Assay (IV) Melanocortin Receptor 1 (MC1) binding assay
T2 construct: expressed in transfected cells
Protocol: Assay (IV)—Melanocortin Receptor 1 (MC1) Binding Assay
The MC1 receptor binding assay is performed on BHK cell membranes stably expressing the MC1 receptor. The assay is performed in a total volume of 250 NI: 25 μl of ^125NDP-α-MSH (22 pM in final concentration), 25 μl of test compound/control and 200 μl of cell membrane (25 μg/ml). Test compounds are dissolved in DMSO. Radioactively labeled ligand, membranes and test compounds are diluted in buffer: 25 mM HEPES, pH 7.4, 0.1 mM CaCl2, 1 mM MgSO4, 1 mM EDTA, 0.1% HSA and 0.005% Tween™ 20. Alternatively, HSA may be substituted with ovalbumin. The samples are incubated at 30° C. for 90 min. in Costar round-bottom microtiter plates. Incubation is terminated by filtration on a Packard harvester filtermate. Rapid filtration through Packard Unifilter-96 GF/B filters pre-treated with polyethylenimine (PerkinElmer 6005277). The filters are washed with ice-cold 0.9% NaCl 8-10 times. The plates is air dried at app. 55° C. for 30 min, and 50 μl Microscint 0 (Packard, cat. No. 6013616) is added to each well. The plates are counted in a Topcounter (1 min/well).
as §1

[2] = 125NDP-α-MSH binding, BHK cell membranes, read-out: Assay (IV) MC1 Ki

T1 sequence (P32245 whole entry): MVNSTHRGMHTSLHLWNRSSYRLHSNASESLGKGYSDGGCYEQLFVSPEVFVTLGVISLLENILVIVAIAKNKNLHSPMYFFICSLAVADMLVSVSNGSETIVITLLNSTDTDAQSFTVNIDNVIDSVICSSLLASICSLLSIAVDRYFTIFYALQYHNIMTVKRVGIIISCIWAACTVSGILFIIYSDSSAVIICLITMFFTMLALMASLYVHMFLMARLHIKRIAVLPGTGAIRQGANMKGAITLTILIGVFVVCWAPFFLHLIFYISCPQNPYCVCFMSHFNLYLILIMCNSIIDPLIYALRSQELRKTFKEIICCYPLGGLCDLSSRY
T2 sequence (Q01726 whole entry): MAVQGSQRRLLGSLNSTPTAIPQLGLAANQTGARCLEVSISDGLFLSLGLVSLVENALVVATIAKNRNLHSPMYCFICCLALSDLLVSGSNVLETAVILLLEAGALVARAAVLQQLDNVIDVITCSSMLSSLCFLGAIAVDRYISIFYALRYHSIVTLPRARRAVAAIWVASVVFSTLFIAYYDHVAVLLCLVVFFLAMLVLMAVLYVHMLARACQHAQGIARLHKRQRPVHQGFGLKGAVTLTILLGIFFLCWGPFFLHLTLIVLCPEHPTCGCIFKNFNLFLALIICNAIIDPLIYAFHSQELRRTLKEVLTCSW

SMILES: CCCC[C@H](NC(=O)[C@H](CCCNC(=O)CN(CC(=O)O)CC(=O)O)NC(=O)[C@H](Cc1c[nH]cn1)NC(=O)[C@H](CCC(N)=O)NC(=O)[C@H](CO)NC(=O)CNC(=O)COCCOCCNC(=O)CCCCCCCCCCCCCCCc1nnn[nH]1)C(=O)N[C@H]1CCC(=O)NCCCC[C@@H](C(N)=O)NC(=O)[C@H](Cc2c[nH]c3ccccc23)NC(=O)[C@H](CCCNC(=N)N)NC(=O)[C@@H](Cc2ccccc2)NC(=O)[C@@H]2C[C@@H](O)CN2C1=O [Example 8, (2-{2-[16-(Tetrazol-5-yl)hexadecanoylamino]ethoxy}ethoxy)acetyl-Gly-Ser-Gln-His-Orn(BCMA)-Nle-c[Glu-Hyp-D-Phe-Arg-Trp-Lys]-NH2] ({Palmitoyl(16-(5-tetrazolyl))-AEEA}-GSQH[Orn](NTA)[Nle]E[Hyp][dF]RWK-NH2; lactam 7-12)
solubility at 3 days ([1]; pH 2.96, pH 2.96, read-out: Conc (solubility in water)): 716 µM (≈ 1520 µg/mL)
solubility at 3 days ([1]; pH 4.1, pH 4.1, read-out: Conc (solubility in water)): 536 µM (≈ 1140 µg/mL)
solubility at 3 days ([1]; pH 4.24, pH 4.24, read-out: Conc (solubility in water)): 389 µM (≈ 825 µg/mL)
solubility at 3 days ([1]; pH 4.87, pH 4.87, read-out: Conc (solubility in water)): 34 µM (≈ 72.1 µg/mL)
solubility at 3 days ([1]; pH 5.9, pH 5.9, read-out: Conc (solubility in water)): 10 µM (≈ 21.2 µg/mL)
solubility at 3 days ([1]; pH 6.7, pH 6.7, read-out: Conc (solubility in water)): 26 µM (≈ 55.1 µg/mL)
solubility at 3 days ([1]; pH 7.45, pH 7.45, read-out: Conc (solubility in water)): 271 µM (≈ 575 µg/mL)
solubility at 3 days ([1]; pH 7.47, pH 7.47, read-out: Conc (solubility in water)): 116 µM (≈ 246 µg/mL)
solubility at 3 days ([1]; pH 7.75, pH 7.75, read-out: Conc (solubility in water)): 280 µM (≈ 594 µg/mL)
solubility at 3 days ([1]; pH 7.95, pH 7.95, read-out: Conc (solubility in water)): 546 µM (≈ 1160 µg/mL)
Ki (human MC4 receptor; Assay (V) MC4 [Ki] (nM)): 0.9 nM
Ki (MC1 receptor): > 10000 nM

solubility at 3 days ([1]; pH 3.18): 19 µM (≈ 47.1 µg/mL)
solubility at 3 days ([1]; pH 4.62): 15 µM (≈ 37.2 µg/mL)
solubility at 3 days ([1]; pH 4.66): 23 µM (≈ 57 µg/mL)
solubility at 3 days ([1]; pH 5.07): 18 µM (≈ 44.6 µg/mL)
solubility at 3 days ([1]; pH 5.37): 10 µM (≈ 24.8 µg/mL)
solubility at 3 days ([1]; pH 5.84): 41 µM (≈ 102 µg/mL)
solubility at 3 days ([1]; pH 6.5): 19 µM (≈ 47.1 µg/mL)
solubility at 3 days ([1]; pH 7): 17 µM (≈ 42.1 µg/mL)
solubility at 3 days ([1]; pH 7.29): 20 µM (≈ 49.6 µg/mL)
solubility at 3 days ([1]; pH 7.43): 29 µM (≈ 71.9 µg/mL)
Ki (human MC4 receptor; read-out: Assay (V) MC4 [Ki]): 8.65 nM
Ki (MC1 receptor; [2]): > 10000 nM
SMILES: CCCC[C@H](NC(=O)[C@H](CNC(=O)CN(CC(=O)O)CC(=O)O)NC(=O)[C@H](CO)NC(=O)[C@H](CCC(N)=O)NC(=O)[C@H](CO)NC(=O)CNC(=O)COCCOCCNC(=O)COCCOCCNC(=O)COCCOCCNC(=O)COCCOCCNC(=O)CCCCCCCCCCCCCCCc1nnn[nH]1)C(=O)N[C@H]1CCC(=O)NCCCC[C@@H](C(N)=O)NC(=O)[C@H](Cc2c[nH]c3ccccc23)NC(=O)[C@H](CCCNC(=N)N)NC(=O)[C@@H](Cc2ccccc2)NC(=O)[C@@H]2C[C@@H](O)CN2C1=O [Example 14, (2-{2-[2-(2-{2-[2-(2-{2-[2-(2-{2-[16-(Tetrazol-5-yl)hexadecanoylamino]ethoxy}ethoxy)acetylamino]ethoxy}ethoxy)acetylamino]ethoxy}ethoxy)acetylamino]ethoxy}ethoxy)acetyl-Gly-Ser-Gln-Ser-Dap(BCMA)-Nle-c[Glu-Hyp-D-Phe-Arg-Trp-Lys]-NH2] ({Palmitoyl(16-(5-tetrazolyl))-AEEA-AEEA-AEEA-AEEA}-GSQS[Dap](NTA)[Nle]E[Hyp][dF]RWK-NH2; lactam 7-12)

solubility at 3 days ([1]; pH 3.18): 531 µM (≈ 1340 µg/mL)
solubility at 3 days ([1]; pH 4.32): 515 µM (≈ 1300 µg/mL)
solubility at 3 days ([1]; pH 4.67): 492 µM (≈ 1240 µg/mL)
solubility at 3 days ([1]; pH 4.89): 450 µM (≈ 1140 µg/mL)
solubility at 3 days ([1]; pH 4.98): 347 µM (≈ 877 µg/mL)
solubility at 3 days ([1]; pH 5.75): 41 µM (≈ 104 µg/mL)
solubility at 3 days ([1]; pH 6.37): 51 µM (≈ 129 µg/mL)
solubility at 3 days ([1]; pH 6.66): 93 µM (≈ 235 µg/mL)
solubility at 3 days ([1]; pH 7.3): 454 µM (≈ 1150 µg/mL)
solubility at 3 days ([1]; pH 7.66): 596 µM (≈ 1510 µg/mL)
Ki (human MC4 receptor; read-out: Assay (V) MC4 [Ki]): 2.75 nM
Ki (MC1 receptor; [2]): > 10000 nM
SMILES: CCCC[C@H](NC(=O)[C@H](CNC(=O)CN(CC(=O)O)CC(=O)O)NC(=O)[C@H](Cc1c[nH]cn1)NC(=O)[C@H](CCC(N)=O)NC(=O)[C@H](CO)NC(=O)CNC(=O)COCCOCCNC(=O)COCCOCCNC(=O)COCCOCCNC(=O)COCCOCCNC(=O)CCCCCCCCCCCCCCCc1nnn[nH]1)C(=O)N[C@H]1CCC(=O)NCCCC[C@@H](C(N)=O)NC(=O)[C@H](Cc2c[nH]c3ccccc23)NC(=O)[C@H](CCCNC(=N)N)NC(=O)[C@@H](Cc2ccccc2)NC(=O)[C@@H]2C[C@@H](O)CN2C1=O [Example 16, (2-{2-[2-(2-{2-[2-(2-{2-[2-(2-{2-[16-(Tetrazol-5-yl)hexadecanoylamino]ethoxy}ethoxy)acetylamino]ethoxy}ethoxy)acetylamino]ethoxy}ethoxy)acetylamino]ethoxy}ethoxy)acetyl-Gly-Ser-Gln-His-Dap(BCMA)-Nle-c[Glu-Hyp-D-Phe-Arg-Trp-Lys]-NH2] ({Palmitoyl(16-(5-tetrazolyl))-AEEA-AEEA-AEEA-AEEA}-GSQH[Dap](NTA)[Nle]E[Hyp][dF]RWK-NH2; lactam 7-12)

SMILES: CCCC[C@H](NC(=O)[C@H](CNC(=O)CN(CC(=O)O)CC(=O)O)NC(=O)[C@H](Cc1c[nH]cn1)NC(=O)[C@H](CCC(N)=O)NC(=O)[C@H](CO)NC(=O)[C@H](CCC(=O)O)NC(=O)COCCOCCNC(=O)CCCCCCCCCCCCCCCc1nnn[nH]1)C(=O)N[C@H]1CCC(=O)NCCCC[C@@H](C(N)=O)NC(=O)[C@H](Cc2c[nH]c3ccccc23)NC(=O)[C@H](CCCNC(=N)N)NC(=O)[C@@H](Cc2ccccc2)NC(=O)[C@@H]2C[C@@H](O)CN2C1=O [Example 17, (2-{2-[16-(Tetrazol-5-yl)hexadecanoylamino]ethoxy}ethoxy)acetyl-Glu-Ser-Gln-His-Dap(BCMA)-Nle-c[Glu-Hyp-D-Phe-Arg-Trp-Lys]-NH2] ({Palmitoyl(16-(5-tetrazolyl))-AEEA}-ESQH[Dap](NTA)[Nle]E[Hyp][dF]RWK-NH2; lactam 7-12)
solubility at 3 days ([1]; pH 3.32, pH 3.32, read-out: Conc (solubility in water)): 34 µM (≈ 73.6 µg/mL)
solubility at 3 days ([1]; pH 3.76, pH 3.76, read-out: Conc (solubility in water)): 25 µM (≈ 54.1 µg/mL)
solubility at 3 days ([1]; pH 4.31, pH 4.31, read-out: Conc (solubility in water)): 20 µM (≈ 43.3 µg/mL)
solubility at 3 days ([1]; pH 4.56, pH 4.56, read-out: Conc (solubility in water)): 20 µM (≈ 43.3 µg/mL)
solubility at 3 days ([1]; pH 4.94, pH 4.94, read-out: Conc (solubility in water)): 23 µM (≈ 49.8 µg/mL)
solubility at 3 days ([1]; pH 5.55, pH 5.55, read-out: Conc (solubility in water)): 39 µM (≈ 84.4 µg/mL)
solubility at 3 days ([1]; pH 6.04, pH 6.04, read-out: Conc (solubility in water)): 127 µM (≈ 275 µg/mL)
solubility at 3 days ([1]; pH 6.34, pH 6.34, read-out: Conc (solubility in water)): 226 µM (≈ 489 µg/mL)
solubility at 3 days ([1]; pH 6.89, pH 6.89, read-out: Conc (solubility in water)): 303 µM (≈ 656 µg/mL)
solubility at 3 days ([1]; pH 7.62, pH 7.62, read-out: Conc (solubility in water)): 351 µM (≈ 760 µg/mL)
Ki (human MC4 receptor; read-out: Assay (V) MC4 [Ki]): 5.4 nM
Ki (MC1 receptor; [2]): > 10000 nM
